Structures can show the parent of a compound that is named as a salt.
Legend:
[1] = Open, multicenter phase Ib/II clinical study, first-line 14C12H1L1 plus anlotinib hydrochloride: adverse events; type: in vivo, human; settings: patients on combined 14C12H1L1 + anlotinib, events related to the labelled treatment; for TRAE (incidence of treatment-related adverse events) / ≥ grade 3 TRAEs: by Jun. 27, 2019
From the text: This example discloses the results of an early open, multicenter phase Ib/II clinical study on first-line treatment of unresectable hepatocellular carcinoma with combined use of 14C12H1L1 and anlotinib hydrochloride.
This study is an open, multicenter phase Ib/II clinical study aimed at evaluating the effectiveness, i.e. safety, of 14C12H1L1 in combination with anlotinib in the first line treatment of unresectable hepatocellular carcinoma.
Secondary endpoints: (1) disease control rate (DCR), duration of response (DOR), time to response (TTR), progression-free survival (PFS), and treatment past progression (TPP) being evaluated by investigators according to RECISIT v1.1; (2) overall survival (OS); (3) safety evaluation: incidence and severity of AEs, clinically significant abnormal laboratory test results.
14C12H1L1 injection, 100 mg/10 mL solution; manufacturer: Akeso Tiancheng Guangdong Co., Ltd.; stored at 2-8° C. in the absence of light.
Anlotinib hydrochloride capsules (FOCUS V®), 8 mg/capsule; manufacturer: Chia Tai Tianging Pharmaceutical Group Co., Ltd.; sealed and be away from light.
14C12H1L1 in combination with anlotinib, wherein the 14C12H1L1: 200 mg, Q3W intravenous injection; anlotinib: taken once a day, 8 mg each time, 14 days of treatment plus 7 days of interruption, i.e., a treatment cycle of 21 days.

[2] = system: mouse liver cancer H22 subcutaneous xenograft tumor; assay: Efficacy on mouse liver cancer H22 subcutaneous xenograft tumor; type: in vivo; settings: for Mean tumor volume (mm^3) D0: D0, day of first administration (baseline), KM mice, 10 per group; for % T/C D17 / Tumor growth inhibition (%): anlotinib hydrochloride 1 mg/kg i.g. QD×17, lenvatinib mesylate 5 mg/kg i.g. QD×17, mPD-1 1 mg/kg IP 5 times; for % T/C D17 / Tumor growth inhibition (%) / Mean tumor volume (mm^3) D17: D17; for Mean tumor volume (mm^3) D17: anlotinib hydrochloride 1 mg/kg i.g. QD×17, lenvatinib mesylate 5 mg/kg i.g. QD×17, mPD-1 1 mg/kg IP D0, D3, D7, D10, D14; for Complete regression / Partial regression: number of animals out of 10 per group
Procedure: The H22 cells were cultured in a 10-cm petri dish with RPMI 1640 medium containing 10% fetal bovine serum, penicillin and streptomycin in an incubator at 37° C. and 5% CO2. Subculturing was carried out twice a week and cells were collected, counted and inoculated when the cells grew exponentially.
KM mice, 6-7 weeks old, female, purchased from Shanghai JSJ Laboratory Animal Co. Ltd. Production license No.: SCXK (Shanghai) 2013-0006; animal certification No.: 311620400013790. Breeding environment: SPF grade.
The experimental index is to study the influence of the drug on the tumor growth, and the specific index is T/C (%) or tumor growth inhibition TGI (%).
Tumor diameters were measured twice weekly with a vernier caliper and tumor volume (V) was calculated according to the following formula: V=½×a×b^2, where a and b represent length and width, respectively.
T/C (%)=(T−T0)/(C−C0)×100, where T and C are the tumor volumes of animals at the end of the experiment in the test group and control group, respectively; T0 and C0 are the tumor volumes of animals at the beginning of the experiment in the test group and control group, respectively. Tumor growth inhibition (TGI)(%)=100−T/C(%). Tumor growth inhibition (TGI)(%)=100−(T−T0)/T0×100 when tumor started to regress.
If the volume of tumor shrinks compared with its initial volume, i.e., T<T0 […], it is defined as partial regression (PR) of tumor; if the tumor completely disappears, it is defined as complete regression (CR) of tumor.
(§1) H22 cells were inoculated to each mouse subcutaneously, and when the tumor grew to 100-200 mm^3, the mice were randomly grouped and intragastrically (i.g.) administered or intraperitoneal (IP) injected with drug; the mice in the solvent group were intragastrically administrated with distilled water with the same volume; the administration volume was 0.1 mL/10 g body weight; specific administration dosages and regimes are shown in Table 4.
After the experiment was completed, or when the tumor volume of the animals reached the euthanization endpoint of 1500 mm^3, the animals were put to death through carbon dioxide inhalation, followed by dissecting to take the tumor tissue and weighing and photographing.

[3] = Body weight and tolerance of H22 tumor-bearing mice; type: in vivo
Procedure: The use and welfare of the laboratory animals were carried out in compliance with the provisions of Association for Assessment and Accreditation of Laboratory Animal Care, International (AAALAC). The health and death of the animals are monitored daily and routine examinations include observation of the effects of the test substance or drug on the daily performance of the animals, such as behavioral activities, weight changes, appearance, etc.
as §1

[4] = system: advanced NSCLC; settings: phase III; Chinese patients; cited from earlier work
[5] = phase II trial; cited from earlier work

Compound | TRAE (incidence of treatment-related adverse events) [1] | ≥ grade 3 TRAEs [1] | SAE [1] | TRAEs resulting in the withdrawal [1] | Mean tumor volume (mm^3) D0 [2] | % T/C D17 [2] | Tumor growth inhibition (%) [2] | Mean tumor volume (mm^3) D17 [2] | Complete regression ([2]; same doses) | Partial regression ([2]; same doses) | body weight / tolerance of tumor-bearing mice ([3]; D0-D17, anlotinib hydrochloride 1 mg/kg, lenvatinib mesylate 5 mg/kg, mPD-1 1 mg/kg) | overall survival and progression-free survival [4] | tolerability [4] | overall survival [5] | progression-free survival [5] | tumor growth / efficacy in words ([2]; D0-D17, same doses, comparison between groups) | body weight / tolerance of tumor-bearing mice ([3]; mouse, in vivo)
14C12H1L1: anti-PD-1 monoclonal antibody (Akeso Bioscience); CN106977602A; CDRs SEQ ID NO: 25-30 | 62.5% | 6.25% | 6.25% | 6.25% | – | – | – | – | – | – | – | – | – | – | – | – | –
COc1cc2c(Oc3ccc4[nH]c(C)cc4c3F)ccnc2cc1OCC1(N)CC1 [Anlotinib hydrochloride, 1-[[[4-(4-fluoro-2-methyl-1H-indol-5-yl)oxy-6-methoxyquinolin-7-yl]oxy]methyl]cyclopropylamine hydrochloride] | – | – | – | – | 131.4 mm^3 | 38.3% | 61.7% | 975.3 mm^3 | 0 | 0 | no symptom like obvious weight loss | – | – | – | – | – | –
COc1cc2c(Oc3ccc4[nH]c(C)cc4c3F)ccnc2cc1OCC1(N)CC1 [Anlotinib, 1-[[[4-(4-fluoro-2-methyl-1H-indol-5-yl)oxy-6-methoxyquinolin-7-yl]oxy]methyl]cyclopropylamine] | 75% | 12.5% | 12.5% | 12.5% | – | – | – | – | – | – | – | extended overall survival and progression-free survival | well tolerated | potential benefit for overall survival | improve progression-free survival | – | –
COc1cc2nccc(Oc3ccc(NC(=O)NC4CC4)c(Cl)c3)c2cc1C(N)=O [Lenvatinib mesylate] | – | – | – | – | 127.6 mm^3 | 21.0% | 79% | 590.8 mm^3 | 0 | 0 | – | – | – | – | – | obviously inhibits the growth | no symptom like obvious weight loss
